Measured values taken from patent US20240300980A1, “HETEROCYCLIC COMPOUNDS AS KRAS INHIBITOR, AND PREPARATION THEREFOR AND USE THEREOF IN TREATMENT” (SHANGHAI KECHOW PHARMA, INC., priority 2021, published 2024).

System: AGS cells (KRAS^G12D)
Experiment: Detection of cell proliferation in vitro by MTT/MTS method (cell activity experiment)
Assay type: cell-based
Conditions: AGS cells; MTT/MTS; 3 days of drug treatment; read-out: AGS IC50
Procedure, shortened: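 KRAS G12D AGS cells seeded at 1000 per well, compound added 24 h later, 0.5% final DMSO. Viability read after 3 days of treatment by MTT (solubilised in DMSO) or MTS, 4 h, absorbance 490 nm. IC50 from dose–response curves versus DMSO control.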

With C#Cc1c(F)ccc2cc(O)cc(-c3cc4nc(OC[C@@]56CCCN5C[C@H](F)C6)nc(N5C[C@H]6CC[C@@H](C5)N6)c4c4occc34)c12 [Example 384, 4-(9-((2R,5S)-3,8-diazabicyclo[3.2.1]octan-3-yl)-7-(((2R,7aS)-2-fluorotetrahydro-1H-pyrrolizin-7a(5H)-yl)methoxy)furo[2,3-f]quinazolin-4-yl)-5-ethynyl-6-fluoronaphthalen-2-ol] the IC50 was 212 nM.

Same assay, conditions: Homo sapiens, AGS, 72 h, AGS cells; MTT/MTS; 3 days of drug treatment; read-out: AGS IC50

Point of comparison: C#Cc1cc2c(N3C[C@H]4CC[C@@H](C3)N4)nc(OC[C@@]34CCCN3C[C@H](F)C4)nc2c(F)c1-c1cc(O)cc2c1C(C)CCC2 (stereo partly drawn) [Example 374, 4-(4-((1R,5S)-3,8-diazabicyclo[3.2.1]octan-3-yl)-6-ethynyl-8-fluoro-2-(((2R,7aS)-2-fluorotetrahydro-1H-pyrrolizin-7a(5H)-yl)methoxy)quinazolin-7-yl)-5-methyl-5,6,7,8-tetrahydronaphthalen-2-ol], IC50 32 nM. Against it:
- C#Cc1cc2c(N3C[C@H]4CC[C@@H](C3)N4)nc(OC[C@@]34CCCN3C[C@H](F)C4)nc2c(F)c1-c1cc(O)cc2c1C(CC)CC2 (stereo partly drawn) [Example 371, 7-(4-((1R,5S)-3,8-diazabicyclo[3.2.1]octan-3-yl)-6-ethynyl-8-fluoro-2-(((2R,7aS)-2-fluorotetrahydro-1H-pyrrolizin-7a(5H)-yl)methoxy)quinazolin-7-yl)-1-ethyl-2,3-dihydro-1H-inden-5-ol] — 2.7-fold higher, 85 nM
- C#Cc1cc2c(N3C[C@H]4CC[C@@H](C3)N4)nc(OC[C@@]34CCCN3C[C@H](F)C4)nc2c(F)c1-c1cc(O)cc2c1C(CC)C1CC21 (stereo partly drawn) [Example 372, 5-(4-((1R,5S)-3,8-diazabicyclo[3.2.1]octan-3-yl)-6-ethynyl-8-fluoro-2-(((2R,7aS)-2-fluorotetrahydro-1H-pyrrolizin-7a(5H)-yl)methoxy)quinazolin-7-yl)-6-ethyl-1,1a,6,6a-tetrahydrocyclopropa[a]inden-3-ol] — 2-fold higher, 65 nM
- C#Cc1cc2c(N3C[C@H]4CC[C@@H](C3)N4)nc(OC[C@@]34CCCN3C[C@H](F)C4)nc2c(F)c1-c1cc(O)cc2ccc(F)c(C#C)c12 [Example 373, 4-(4-((1R,5S)-3,8-diazabicyclo[3.2.1]octan-3-yl)-6-ethynyl-8-fluoro-2-(((2R,7aS)-2-fluorotetrahydro-1H-pyrrolizin-7a(5H)-yl)methoxy)quinazolin-7-yl)-5-ethynyl-6-fluoronaphthalen-2-ol] — within 1.5-fold, 30 nM
- CC1CCCc2cc(O)cc(-c3c(-c4cn[nH]c4)cc4c(N5C[C@H]6CC[C@@H](C5)N6)nc(OC[C@@]56CCCN5C[C@H](F)C6)nc4c3F)c21 (stereo partly drawn) [Example 376, 4-(4-((1R,5S)-3,8-diazabicyclo[3.2.1]octan-3-yl)-8-fluoro-2-(((2R,7aS)-2-fluorotetrahydro-1H-pyrrolizin-7a(5H)-yl)methoxy)-6-(1H-pyrazol-4-yl)quinazolin-7-yl)-5-methyl-5,6,7,8-tetrahydronaphthalen-2-ol] — 3.1-fold higher, 100 nM
- Oc1cc(-c2c(-c3cn[nH]c3)cc3c(N4C[C@H]5CC[C@@H](C4)N5)nc(OC[C@@]45CCCN4C[C@H](F)C5)nc3c2F)c2ccccc2c1 [Example 377, 4-(4-((1R,5S)-3,8-diazabicyclo[3.2.1]octan-3-yl)-8-fluoro-2-(((2R,7aS)-2-fluorotetrahydro-1H-pyrrolizin-7a(5H)-yl)methoxy)-6-(1H-pyrazol-4-yl)quinazolin-7-yl)naphthalen-2-ol] — 3.8-fold higher, 120 nM
- C#Cc1c(F)ccc2cc(O)cc(-c3c(CCC#N)cc4c(N5C[C@H]6CC[C@@H](C5)N6)nc(OC[C@@]56CCCN5C[C@H](F)C6)nc4c3F)c12 [Example 378, 3-(4-((1R,5S)-3,8-diazabicyclo[3.2.1]octan-3-yl)-7-(8-ethynyl-7-fluoro-3-hydroxynaphthalen-1-yl)-8-fluoro-2-(((2R,7aS)-2-fluorotetrahydro-1H-pyrrolizin-7a(5H)-yl)methoxy)quinazolin-6-yl)propanenitrile] — 5-fold higher, 160 nM
- C#Cc1c(F)ccc2cc(O)cc(-c3c4c(c5c(N6C[C@H]7CC[C@@H](C6)N7)nc(OC[C@@]67CCCN6C[C@H](F)C7)nc5c3F)CCC4)c12 [Example 379, 4-(1-((1R,5S)-3,8-diazabicyclo[3.2.1]octan-3-yl)-5-fluoro-3-(((2R,7aS)-2-fluorotetrahydro-1H-pyrrolizin-7a(5H)-yl)methoxy)-8,9-dihydro-7H-cyclopenta[f]quinazolin-6-yl)-5-ethynyl-6-fluoronaphthalen-2-ol] — 2.8-fold higher, 90 nM
- Oc1cc(-c2c3c(c4c(N5C[C@H]6CC[C@@H](C5)N6)nc(OC[C@@]56CCCN5C[C@H](F)C6)nc4c2F)CCC3)c2c(F)c(F)ccc2c1 [Example 380, 4-(1-((1R,5S)-3,8-diazabicyclo[3.2.1]octan-3-yl)-5-fluoro-3-(((2R,7aS)-2-fluorotetrahydro-1H-pyrrolizin-7a(5H)-yl)methoxy)-8,9-dihydro-7H-cyclopenta[f]quinazolin-6-yl)-5,6-difluoronaphthalen-2-ol] — 3-fold higher, 95 nM
- CCC1CCc2cc(O)cc(-c3c4c(c5c(N6C[C@H]7CC[C@@H](C6)N7)nc(OC[C@@]67CCCN6C[C@H](F)C7)nc5c3F)CCC4)c21 (stereo partly drawn) [Example 381, 7-(1-((1R,5S)-3,8-diazabicyclo[3.2.1]octan-3-yl)-5-fluoro-3-(((2R,7aS)-2-fluorotetrahydro-1H-pyrrolizin-7a(5H)-yl)methoxy)-8,9-dihydro-7H-cyclopenta[f]quinazolin-6-yl)-1-ethyl-2,3-dihydro-1H-inden-5-ol] — 2.3-fold higher, 75 nM
- CC1CCCc2cc(O)cc(-c3c4c(c5c(N6C[C@H]7CC[C@@H](C6)N7)nc(OC[C@@]67CCCN6C[C@H](F)C7)nc5c3F)CCC4)c21 (stereo partly drawn) [Example 382, 4-(1-((1R,5S)-3,8-diazabicyclo[3.2.1]octan-3-yl)-5-fluoro-3-(((2R,7aS)-2-fluorotetrahydro-1H-pyrrolizin-7a(5H)-yl)methoxy)-8,9-dihydro-7H-cyclopenta[f]quinazolin-6-yl)-5-methyl-5,6,7,8-tetrahydronaphthalen-2-ol] — within 1.5-fold, 45 nM
- CCC1CCCc2cc(O)cc(-c3c4c(c5c(N6C[C@H]7CC[C@@H](C6)N7)nc(OC[C@@]67CCCN6C[C@H](F)C7)nc5c3F)CCC4)c21 (stereo partly drawn) [Example 383, 4-(1-((1R,5S)-3,8-diazabicyclo[3.2.1]octan-3-yl)-5-fluoro-3-(((2R,7aS)-2-fluorotetrahydro-1H-pyrrolizin-7a(5H)-yl)methoxy)-8,9-dihydro-7H-cyclopenta[f]quinazolin-6-yl)-5-ethyl-5,6,7,8-tetrahydronaphthalen-2-ol] — 1.6-fold higher, 50 nM
- CC1CCc2cc(O)cc(-c3cc4nc(OC[C@@]56CCCN5C[C@H](F)C6)nc(N5C[C@H]6CC[C@@H](C5)N6)c4c4occc34)c21 (stereo partly drawn) [Example 385, 7-(9-((1R,5S)-3,8-diazabicyclo[3.2.1]octan-3-yl)-7-(((2R,7aS)-2-fluorotetrahydro-1H-pyrrolizin-7a(5H)-yl)methoxy)furo[2,3-f]quinazolin-4-yl)-1-methyl-2,3-dihydro-1H-inden-5-ol] — 14-fold higher, 459 nM
- CCC1CCc2cc(O)cc(-c3cc4nc(OC[C@@]56CCCN5C[C@H](F)C6)nc(N5C[C@H]6CC[C@@H](C5)N6)c4c4occc34)c21 (stereo partly drawn) [Example 386, 7-(9-((1R,5S)-3,8-diazabicyclo[3.2.1]octan-3-yl)-7-(((2R,7aS)-2-fluorotetrahydro-1H-pyrrolizin-7a(5H)-yl)methoxy)furo[2,3-f]quinazolin-4-yl)-1-ethyl-2,3-dihydro-1H-inden-5-ol] — 16-fold higher, 508 nM
- CC1CCCc2cc(O)cc(-c3cc4nc(OC[C@@]56CCCN5C[C@H](F)C6)nc(N5C[C@H]6CC[C@@H](C5)N6)c4c4occc34)c21 (stereo partly drawn) [Example 387, 4-(9-((1R,5S)-3,8-diazabicyclo[3.2.1]octan-3-yl)-7-(((2R,7aS)-2-fluorotetrahydro-1H-pyrrolizin-7a(5H)-yl)methoxy)furo[2,3-f]quinazolin-4-yl)-5-methyl-5,6,7,8-tetrahydronaphthalen-2-ol] — 15-fold higher, 481 nM
- CCC1CCCc2cc(O)cc(-c3cc4nc(OC[C@@]56CCCN5C[C@H](F)C6)nc(N5C[C@H]6CC[C@@H](C5)N6)c4c4occc34)c21 (stereo partly drawn) [Example 388, 4-(9-((1R,5S)-3,8-diazabicyclo[3.2.1]octan-3-yl)-7-(((2R,7aS)-2-fluorotetrahydro-1H-pyrrolizin-7a(5H)-yl)methoxy)furo[2,3-f]quinazolin-4-yl)-5-ethyl-5,6,7,8-tetrahydronaphthalen-2-ol] — 15-fold higher, 493 nM
- Oc1cc(-c2c3c(c4c(N5C[C@H]6CC[C@@H](C5)N6)nc(OC[C@@]56CCCN5C[C@H](F)C6)nc4c2F)OCO3)c2ccccc2c1 [Example 389, 4-(9-((1R,5S)-3,8-diazabicyclo[3.2.1]octan-3-yl)-5-fluoro-7-(((2R,7aS)-2-fluorotetrahydro-1H-pyrrolizin-7a(5H)-yl)methoxy)-[1,3]dioxolo[4,5-f]quinazolin-4-yl)naphthalen-2-ol] — 5.6-fold higher, 180 nM
- Oc1cc2c(c(-c3c4c(c5c(N6C[C@H]7CC[C@@H](C6)N7)nc(OC[C@@]67CCCN6C[C@H](F)C7)nc5c3F)OCO4)c1)CCCC2 [Example 390, 4-(9-((1R,5S)-3,8-diazabicyclo[3.2.1]octan-3-yl)-5-fluoro-7-(((2R,7aS)-2-fluorotetrahydro-1H-pyrrolizin-7a(5H)-yl)methoxy)-[1,3]dioxolo[4,5-f]quinazolin-4-yl)-5,6,7,8-tetrahydronaphthalen-2-ol] — 4.7-fold higher, 150 nM
- CC1CCCc2cc(O)cc(-c3c4c(c5c(N6C[C@H]7CC[C@@H](C6)N7)nc(OC[C@@]67CCCN6C[C@H](F)C7)nc5c3F)OCO4)c21 (stereo partly drawn) [Example 391, 4-(9-((1R,5S)-3,8-diazabicyclo[3.2.1]octan-3-yl)-5-fluoro-7-(((2R,7aS)-2-fluorotetrahydro-1H-pyrrolizin-7a(5H)-yl)methoxy)-[1,3]dioxolo[4,5-f]quinazolin-4-yl)-5-methyl-5,6,7,8-tetrahydronaphthalen-2-ol] — 3.1-fold higher, 100 nM
